Legend:
Assay type in all cases: functional
Pieris brassicae = test: Antifeedant activity against fifth-instar larval stage of Pieris brassicae fed on compound-treated cabbage leaf disks at 5 mM by two choice assay
Spodoptera exempta = test: Antifeedant activity against Spodoptera exempta larvae fed on artificial diet containing compound at 100 ppm by two choice assay
Spodoptera frugiperda = test: Antifeedant activity against Spodoptera frugiperda (fall armyworm) larvae fed on artificial diet containing compound at 100 ppm by two choice assay

CC1(C)OC(O)CC1(O)CCc1ccccc1 (configuration not stated)
AFI (Pieris brassicae): 5%

C[C@@H]1CC(O[Si](C)(C)C(C)(C)C)CC[C@@]1(C)CCC1=CC(=O)OC1 (some centres not stated)
AFI (Spodoptera exempta): 34%
AFI (Spodoptera frugiperda): 12%

CC(=O)OC[C@@]12[C@@H](OC(C)=O)C[C@@H](C)C(C)(C)[C@H]1CCC[C@]21CO1
AFI (Spodoptera exempta): 20%
AFI (Spodoptera frugiperda): 15%

COC1CC(O)(CCc2ccccc2)C(C)(C)O1 (configuration not stated)
AFI (Pieris brassicae): 23%

CC1(C)OCCC1(O)CCc1ccccc1 (configuration not stated)
AFI (Pieris brassicae): 28%

CC1(C)OC(=O)CC1(O)CCc1ccccc1 (configuration not stated)
AFI (Pieris brassicae): 36%

CC1(C)OC(=O)C=C1CCc1ccccc1
AFI (Pieris brassicae): 33%

CCCCCCC1=CC(=O)OC1(C)C
AFI (Pieris brassicae): 9%

CCCCCCC1(O)CC(=O)OC1(C)C (configuration not stated)
AFI (Pieris brassicae): 11%

CC1(C)OC(=O)CC1(O)CCC1CCCCC1 (configuration not stated)
AFI (Pieris brassicae): 15%

O=C1CC(CCC2CCCCC2)CO1 (configuration not stated)
AFI (Pieris brassicae): -9.2%

O=C1C=C(CCC2CCCCC2)CO1
AFI (Pieris brassicae): 35%

O=C1CC(O)(CCC2CCCCC2)CO1 (configuration not stated)
AFI (Pieris brassicae): -4%

CC1(C)OC(=O)C=C1CCC1CCCCC1
AFI (Pieris brassicae): 26%

CC(=O)OC[C@@]12[C@@H](OC(C)=O)C[C@@H](C)[C@](C)(C[C@H](O)c3ccoc3)[C@H]1CCC[C@]21CO1 [6,19-DIACETYLTEUMASSILIN]
AFI (Spodoptera exempta): 38%
AFI (Spodoptera frugiperda): 94%

CC(=O)OC[C@@]12[C@@H](OC(C)=O)C[C@@H](C)[C@](C)(CCC3=CC(=O)OC3)[C@H]1CCC[C@]21CO1 [AJUGARIN I]
AFI (Spodoptera exempta): 73%
AFI (Spodoptera frugiperda): 47%

CC(=O)OC[C@@]12[C@@H](OC(C)=O)C[C@@H](C)[C@](C)([C@@H]3C[C@H]4C=CO[C@H]4O3)[C@H]1CCC[C@]21CO1 [CLERODIN]
AFI (Spodoptera exempta): 76%
AFI (Spodoptera frugiperda): 78%

Source: ChEMBL document CHEMBL3044952, “Synthesis and insect antifeedant activity of 2-substituted 2,3-dihydrofuran-3-ols and butenolides (Part II)” (1999)
